# “And” between values parts separate entries of the source, which are not always exact repeats. Equal entries are not always repeated. Where two headings read alike, the source gives them in different places.
# Legend:
# [1] = target: T1, truncated VhChiP (Vibrio campbellii, UniProt L0RVU0); experiment: Single-channel BLM recordings, chitohexaose titration of truncated VhChiP (without or with N-plug peptide); format: binding; details: for K (equilibrium binding constant) / koff / kon: truncated
# Protocol: Single-channel analysis using the BLM reconstitution technique was performed as described previously ([13], [34], [35]). The lipid bilayer cuvette consisted of a 25-μm thick Teflon film sandwiched between two chambers. […] The chambers were filled with electrolyte solution and Ag/AgCl electrodes immersed on either side of the Teflon film. The electrolyte used was 1 M KCl buffered with 20 mM Hepes, pH 7.4. 1,2-diphytanoyl-sn-glycero-3-phosphatidylcholine (Avanti Polar Lipids) was used for lipid bilayer formation. To form the bilayer, the aperture was first prepainted with 1 μl of 1% (v/v) hexadecane in pentane (Sigma-Aldrich). One of the electrodes was used as the ground (cis), while the other electrode (trans) was connected to the head-stage of an Axopatch 200B amplifier (Axon Instruments). VhChiP (20–100 ng μL^−1) was added to the solution on the cis side of the lipid membrane. At applied transmembrane potentials of ±100 mV, a single channel was frequently inserted within a few minutes. The protein solution in the chamber was then gently diluted by multiple additions of the working electrolyte, to prevent multiple insertions. Single-channel current measurements were performed in the voltage-clamp mode, with the internal filter set at 10 kHz. Amplitude, probability, and single-channel analyses were performed using pClamp v.10.5 software (https://www.moleculardevices.com/products/axon-patch-clamp-system/acquisition-and-analysis-software/pclamp-software-suite) (all from Molecular Devices). […] Occlusions of ion flow caused by sugar diffusion through the inserting channel were usually recorded for 2 min. To determine the kinetics of sugar translocation on individual subunit blockages, discrete concentrations of chitohexaose (0, 0.25, 0.5, and 1.0 μM) was tested. To study channel blocking behaviors of the N-plug, the first nine amino acids (Asp^1-Lys^9) (the so-called N-plug peptide) that plugged the channel was synthesized (GenScript). Two concentrations of the peptide (10 and 40 μM) were added to either the cis or the trans side of the chamber, containing with or without 1 μM of chitohexaose on the cis side.
# (§1) The equilibrium binding constant K (M^-1) was estimated from the decrease in the ion conductance in the presence of increasing concentrations of sugar using the following equation ([36]):(1) Gmax−Gc/Gmax=Imax−Ic/Imax=K[C]/(K[C]+1)
# (§2) Gmax is the average conductance of the fully open VhChiP channel, and Gc is the average conductance at a given concentration [c] of chitohexaose. Imax is the initial current through the fully open channel in the absence of sugar, and Ic is the current at a particular sugar concentration. The titration experiments were also analyzed using double reciprocal plots.
# [2] = target: T1, truncated VhChiP; experiment: ITC, chitohexaose into truncated VhChiP; format: binding; details: 25 °C
# Protocol: (§3) ITC experiments were carried out at least three times using the MicroCal PEAQ-ITC (Malvern Instruments Ltd) at 25 ± 1 °C with a stirring speed of 500 rpm. For titration experiments, 40 μl of chitohexaose or the N-plug was titrated from a syringe into the 300 μl-calorimeter cells containing 0.05% (v/v) LDAO, 20 mM sodium phosphate buffer, pH 7.5, and protein solution. Injections (2 μl per injection) were repeated 19 times over 150-s intervals. The background was measured by injecting the corresponding ligand into the cell containing only the buffer. The ITC data were collected and analyzed using the MicroCal PEAQ-ITC analysis software (https://www.malvernpanalytical.com/en/support/product-support/software/microcal-peaq-itc-analysis-software-v141). The ITC profile obtained by injecting the corresponding ligand into the reaction cell containing buffer without VhChiP was subtracted from the […] dataset. The resultant data were fitted by a single-site binding model with the nonlinear least square algorithm.
# [3] = target: truncated VhChiP mixed with the N-plug peptide (Vibrio campbellii, UniProt L0RVU0); experiment: ITC, chitohexaose into truncated VhChiP mixed with N-plug peptide; format: binding; details: 25 °C, protein 20 μM, N-plug 5 μM
# Protocol: as §3
# [4] = system: EcChiP; experiment: Literature single-channel analysis, EcChiP; format: binding, E. coli; details: same sugar
# [5] = target: T2, VhChiP D1A mutant (Vibrio campbellii, UniProt L0RVU0, D26A); experiment: Single-channel BLM recordings, chitohexaose titration of D1A mutant; format: binding; details: sugar on cis side
# T2 sequence (L0RVU0 26-375 D26A): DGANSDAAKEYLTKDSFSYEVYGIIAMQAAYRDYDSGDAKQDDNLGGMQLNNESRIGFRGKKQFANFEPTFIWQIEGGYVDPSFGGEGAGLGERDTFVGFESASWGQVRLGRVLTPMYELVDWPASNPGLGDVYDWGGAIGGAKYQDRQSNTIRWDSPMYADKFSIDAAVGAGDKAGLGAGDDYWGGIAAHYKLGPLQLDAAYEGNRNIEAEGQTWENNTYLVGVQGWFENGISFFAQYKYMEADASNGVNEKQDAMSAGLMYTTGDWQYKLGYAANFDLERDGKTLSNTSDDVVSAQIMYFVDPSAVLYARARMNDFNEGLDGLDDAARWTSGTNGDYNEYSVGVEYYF
# Protocol: Single-channel analysis using the BLM reconstitution technique was performed as described previously ([13], [34], [35]). The lipid bilayer cuvette consisted of a 25-μm thick Teflon film sandwiched between two chambers. […] The chambers were filled with electrolyte solution and Ag/AgCl electrodes immersed on either side of the Teflon film. The electrolyte used was 1 M KCl buffered with 20 mM Hepes, pH 7.4. 1,2-diphytanoyl-sn-glycero-3-phosphatidylcholine (Avanti Polar Lipids) was used for lipid bilayer formation. To form the bilayer, the aperture was first prepainted with 1 μl of 1% (v/v) hexadecane in pentane (Sigma-Aldrich). One of the electrodes was used as the ground (cis), while the other electrode (trans) was connected to the head-stage of an Axopatch 200B amplifier (Axon Instruments). VhChiP (20–100 ng μL^−1) was added to the solution on the cis side of the lipid membrane. At applied transmembrane potentials of ±100 mV, a single channel was frequently inserted within a few minutes. […] Occlusions of ion flow caused by sugar diffusion through the inserting channel were usually recorded for 2 min. […]
# Gmax is the average conductance of the fully open VhChiP channel, and Gc is the average conductance at a given concentration [c] of chitohexaose. […] The titration experiments were also analyzed using double reciprocal plots.
# [6] = target: T2, VhChiP D1A mutant; experiment: ITC, chitohexaose into D1A mutant; format: binding; details: 25 °C
# Protocol: as §3
# [7] = target: T3, WT VhChiP (Vibrio campbellii, UniProt L0RVU0); experiment: ITC, chitohexaose into WT VhChiP; format: binding; details: 25 °C
# T3 sequence (L0RVU0 26-375): T2 sequence (L0RVU0 26-375 D26A)
# Protocol: as §3
# [8] = system: EcChiP; set-up: method as in PMID 27226611, PMID 28972167; details: single-channel analysis; cited from earlier work
# [9] = target: N-plug peptide (Vibrio campbellii, UniProt L0RVU0); experiment: ITC, chitohexaose into synthesized N-plug peptide; format: binding; details: 25 °C
# Protocol: as §3
# [10] = target: T3, WT VhChiP; experiment: Single-channel BLM recordings, chitohexaose titration of WT VhChiP; format: binding; details: no N-plug peptide
# Protocol: Single-channel analysis using the BLM reconstitution technique was performed as described previously ([13], [34], [35]). The lipid bilayer cuvette consisted of a 25-μm thick Teflon film sandwiched between two chambers. […] The chambers were filled with electrolyte solution and Ag/AgCl electrodes immersed on either side of the Teflon film. The electrolyte used was 1 M KCl buffered with 20 mM Hepes, pH 7.4. 1,2-diphytanoyl-sn-glycero-3-phosphatidylcholine (Avanti Polar Lipids) was used for lipid bilayer formation. To form the bilayer, the aperture was first prepainted with 1 μl of 1% (v/v) hexadecane in pentane (Sigma-Aldrich). One of the electrodes was used as the ground (cis), while the other electrode (trans) was connected to the head-stage of an Axopatch 200B amplifier (Axon Instruments). VhChiP (20–100 ng μL^−1) was added to the solution on the cis side of the lipid membrane. At applied transmembrane potentials of ±100 mV, a single channel was frequently inserted within a few minutes. The protein solution in the chamber was then gently diluted by multiple additions of the working electrolyte, to prevent multiple insertions. Single-channel current measurements were performed in the voltage-clamp mode, with the internal filter set at 10 kHz. Amplitude, probability, and single-channel analyses were performed using pClamp v.10.5 software (https://www.moleculardevices.com/products/axon-patch-clamp-system/acquisition-and-analysis-software/pclamp-software-suite) (all from Molecular Devices). To investigate sugar translocation, chitooligosaccharide was added to the cis side of the chamber at a final concentration of 5 μM. Occlusions of ion flow caused by sugar diffusion through the inserting channel were usually recorded for 2 min. To determine the kinetics of sugar translocation on individual subunit blockages, discrete concentrations of chitohexaose (0, 0.25, 0.5, and 1.0 μM) was tested. To study channel blocking behaviors of the N-plug, the first nine amino acids (Asp^1-Lys^9) (the so-called N-plug peptide) that plugged the channel was synthesized (GenScript). Two concentrations of the peptide (10 and 40 μM) were added to either the cis or the trans side of the chamber, containing with or without 1 μM of chitohexaose on the cis side.
# as §1, §2
# [11] = system: CymA; set-up: method as in PMID 10455198; details: cited from earlier work
# [12] = system: ScrY; set-up: method as in PMID 9691119; details: cited from earlier work
# [13] = system: maltoporin (LamB); set-up: method as in PMID 11415317; details: cited from earlier work
# [14] = target: N-terminally truncated VhChiP (lacking the N-plug) (Vibrio campbellii (formerly Vibrio harveyi) ATCC BAA-1116); experiment: crystal structure; truncated VhChiP, ligand-free (C121, a single trimer per asymmetric unit) and cocrystallised with chitohexaose (P1, two trimers per asymmetric unit)
# [15] = sugar on cis side, N-plug peptide on trans side
# [16] = sugar on cis side, no N-plug peptide
# [17] = sugar on trans side, no N-plug peptide
molecule,measurement,setting,value
CC(=O)NC1C(O)OC(CO)C(OC2OC(CO)C(OC3OC(CO)C(OC4OC(CO)C(OC5OC(CO)C(OC6OC(CO)C(O)C(O)C6NC(C)=O)C(O)C5NC(C)=O)C(O)C4NC(C)=O)C(O)C3NC(C)=O)C(O)C2NC(C)=O)C1O (stereo not drawn) [chitohexaose],"reduction in the binding affinity, truncated vs WT",[1]; from Table 2,22.3 fold
same,K (equilibrium binding constant),"[1]; sugar on cis side, N-plug peptide on cis side",incalculable
same,K (equilibrium binding constant),[1]; [15],"255,000 M^−1"
same,koff,[1]; [15],220 ± 10 s⁻¹
same,kon,[1]; [15],5.6e+07 ± 100000 M⁻¹ s⁻¹
same,K (equilibrium binding constant),[1]; [16],"11,000 M^−1"
same,koff,[1]; [16],500 ± 100 s⁻¹
same,K (equilibrium binding constant),[1]; [17],"23,000 M^−1"
same,koff,[1]; [17],300 ± 100 s⁻¹
same,kon,[1]; [17],6.8e+06 ± 500000 M⁻¹ s⁻¹
same,"n (site), stoichiometry",[2],2.8 ± 0.1
same,Kd,[2]; one-site binding fit,10 ± 0.3 µM
same,Kd,[3],2.9 ± 0.07 µM
same,"n (site), stoichiometry",[3],2.3 ± 0.2
same,K of EcChiP less than that of VhChiP,[4],about 10 fold
same,K of D1A mutant less than WT channel,[5],2.5 fold
same,Kd,[6],1.2 ± 0.2 µM
same,"n (site), stoichiometry",[6],3.0 ± 0.1
same,"n (site), stoichiometry",[7],3.2 ± 0.1
same,Kd,[7]; one-site binding fit,0.3 ± 0.06 µM
same,K value,[8],"50,000 M^−1"
same,Kd,"[9]; N-plug 500 μM, no protein",2600 ± 120 µM
same,"n (site), stoichiometry",[9]; N-plug peptide alone,1.0 ± 0.02
same,K (equilibrium binding constant),"[10]; WT, sugar on cis side","250,000 M^−1"
same,koff,"[10]; WT, sugar on cis side",270 ± 400 s⁻¹
same,τc (average residence time),"[10]; WT, sugar on cis side",3.7 ± 0.3 ms and 3.7 ± 0.4 ms
same,kon,"[10]; WT, sugar on cis side, 1 M KCl, 20 mM Hepes pH 7.4, +100 mV",68 ± 1.4 × 10^6 M^−1s^−1
same,K (equilibrium binding constant),"[10]; WT, sugar on trans side","240,000 M^−1"
same,koff,"[10]; WT, sugar on trans side, read-out: koff",210 ± 500 s⁻¹
same,kon,"[10]; WT, sugar on trans side, read-out: kon",5e+07 ± 1.2e+06 M⁻¹ s⁻¹
same,kon,"[10]; pH 7.4, WT, sugar on cis side, 1 M KCl, 20 mM Hepes pH 7.4, +100 mV",5.6e+07 ± 1e+07 M⁻¹ s⁻¹
"N-plug peptide: synthesized peptide corresponding to the first nine residues (DGANSDAAK, Asp1-Lys9) of VhChiP",channel blocking events,"[1]; truncated channel, no sugar, peptide at 10 and 40 μM on trans side, +100 mV, 1 M KCl, 20 mM Hepes pH 7.4",rare and short-lived blocking events
cyclodextrin,binding constant (K),[11],"31,300 M^−1"
OC[C@H]1O[C@@](CO)(O[C@H]2O[C@H](CO)[C@@H](O)[C@H](O)[C@H]2O)[C@@H](O)[C@@H]1O [sucrose],binding constant (K),[12],80 M⁻¹
maltohexaose,binding constant (K),[13],"13,600 M^−1"
N-terminally truncated VhChiP (lacking the N-plug) (domain or fragment),stoichiometry N,[14],3
